The values below come from patent US12371453B2, “Polypeptide having antibacterial activity, composition for preventing or treating sepsis comprising same, and antibacterial composition” (priority 2019, dated 2025).

≈ marks a conversion by molar mass, not a printed value. Where two headings read alike, the source gives them in different places. Square brackets hold non-standard residues; d marks the D form. Peptide text beside a SMILES is read from it. Bounds are passed on as bounds.

The nature of data set [1]: LPS binding affinity by Isothermal Titration Calorimeter (ITC). Also on record: species or system E. coli K1. An excerpt:
FPT (ADK 44-54) is denoted by wild type (WT), and peptides in which a point mutation occurred at various sites in WT were manufactured (FP3, FP5, FP6, and FP9). To increase the interaction with LPS in a residue sequence of FP3, peptides were designed based on FP3- and LPS-binding models (FP12-NH2 and FP13-NH2), and peptides were designed by additionally introducing a non-natural amino acid and an amino acid isomer (allomeric D-type amino acid) (allD FP12-NH2, allD FP13-NH2, allD FP-13-9a, allD FP-13-9w, allD FP-13-9k, and allD FP13-NH2 (AcOH)). In addition, an N-terminus PEGylated peptide (PEG-alld FP13-NH2 (AcOH)) was additionally designed, synthesized, and provided by ANYGEN, Co. Ltd. The binding affinity between each of the provided peptides and lipopolysaccharide (LPS) was confirmed through measuring the binding affinity (Kd) using Isothermal Titration Calorimeter (ITC).
Specifically, a method of analyzing binding affinity (Kd) between a peptide and LPS is as follows.
Measurement was carried out using a Malvern MicroCal PEAQ-ITC cell instrument, and the following pretreatment was carried out to confirm interaction with LPS. The amount and morphology of a sample cell are 300 μL and coin-shaped, fixed-in-place, respectively; a syringe rotation rate was 1,200 rpm; and a temperature was 30° C., 35° C. or 25° C.
Before the experiment, LPS and the peptide were previously diluted with PBS, thereby preparing 2 mM LPS and 0.2 mM peptide. 300 μL of the peptide was added into cells in the ITC instrument, which had been washed, and 40 μL of LPS was put into a syringe. After measurement conditions for ITC (temperature, number of injections) were set, the syringe was inserted into the cell, and ITC measurement was started. When the measurement was completed, analysis is performed, and the Kd values of LPS and the peptide were calculated.

The subject of a further data set is CR-Klebsiella pneumoniae. The following applies: CR-.
Data set [2] has as its system Colistin resistant AB (Acinetobactor baumannii).
The test system of a further data set is ESBL (E. coli). The following applies: ESBL.
The test system of a further data set is E. coli. Type of data set: cell-based.
The test system of a further data set is A. baumannii. Type of data set: cell-based.
Data set [3] can be described thus: Calcein dye leakage from liposome mimicking human red blood cell membrane. Format: biochemical. The following applies: calcein-encapsulated liposome. The procedure: To study an action mechanism for FP12-NH2, FP13-NH2, allD FP12-NH2, and allD FP13-NH2 peptides, the disruption ability of the peptides against liposomes mimicking a bacterial cell membrane and a red blood cell membrane was measured.
EYPG is an abbreviation for egg yolk L-α-phosphatidyl-DL-glycerol, and EYPC is an abbreviation for egg yolk 1,2-diacyl-sn-glycero-3-phosphocholine. CH is an abbreviation for cholesterol. After dissolving the phospholipids composed according to the content of each component in chloroform, the chloroform was removed using a rotary evaporator, and lyophilization was performed overnight. Afterward, the dried lipid film was dissolved in a Tris-buffer solution, and calcein […]. After repeated freezing and thawing, the calcein-encapsulated liposome was manufactured using an extruder. Subsequently, after an excitation wavelength of a spectrofluorimeter (Shimadzu RF 5301 PC spectrofluorimeter, Japan) was set to 490 nm, and an emission wavelength was set to 520 nm, the peptide was administered to the liposome to measure relative dye leakage, provided that a 100% dye leakage was expressed as fluorescence intensity when 0.010% Triton-X100 was added.
The upper graphs of FIG. 3 show the % dye leakage for an EYPC/EYPG (7:3, w/w) liposome mimicking bacterial cells, encapsulating a fluorescent dye, calcein, by a peptide according to a peptide concentration. […] The lower graphs of FIG. 3 show the % dye leakage for an EYPC/CH (10:1, w/w) liposome, which is […] mimicking a human red blood, encapsulating a fluorescent dye, calcein, by a peptide according to a peptide concentration.

Data set [4] is described as follows: Calcein dye leakage from liposome mimicking gram-positive bacterial cell membrane. Type of data set: biochemical. The following applies: calcein-encapsulated liposome. On the procedure: To study the action mechanisms for FPT2-NH2, FPT3-NH2, allD FPT2-NH2, and allD FP13-NH2 peptides, the disruption ability of the peptides against a liposome mimicking a bacterial cell membrane was measured.

Data set [5] in a line: LTA binding by ITC analysis. Particulars: cell wall component of gram-positive bacteria (S. aureus). An excerpt:
The binding affinity to lipoteichoic acid (LTA) and lipoprotein (LPP), which are cell wall components of gram-positive bacteria (S. aureus), was confirmed through ITC analysis using allD FP13-NH2.
The binding affinity was confirmed using the ITC analysis method, and the experimental method in Example 1 was applied mutatis mutandis.
(In general: ITC needs no label: the signal is the heat of the interaction.)

Data set [6] relates to trypsin, protease K, and chymotrypsin. Particulars: read out by antibacterial activity.

Usually Kd stands for a measure of binding affinity in units of concentration. One may read the MIC50 as the lowest concentration that inhibits either 50% of growth or 50% of the strains tested, depending on the study. By MIC90 is commonly meant the lowest concentration that inhibits either 90% of growth or 90% of the strains tested, depending on the study.

As to `CC(C)C[C@@H](NC(=O)[C@H](N)CCCCN)C(=O)N[C@H](CCCNC(=N)N)C(=O)N[C@@H](C(=O)N[C@H](CCCCN)C(=O)N[C@H](CC(C)C)C(=O)N[C@H](CCCNC(=N)N)C(=O)N[C@H](CCCNC(=N)N)C(=O)N[C@H](Cc1ccc(O)cc1)C(=O)N[C@H](CC(C)C)C(=O)N[C@H](CCCNC(=N)N)C(N)=O)C(C)C` [allD FP13-NH2] (H-[dK][dL][dR][dV][dK][dL][dR][dR][dY][dL][dR]-NH2; N-terminus assumed), the “LPS binding affinity (in words)” value in data set [1] (compared with FP1 (wild type, WT)) is “strong LPS binding affinity”. For the same compound, the Kd in data set [1] (peptide binding to LPS, read-out: Kd (calculated by ITC)) was 4.78 µM. The “MIC50, CR-Klebsiella pneumoniae” value against CR-Klebsiella pneumoniae is less than 8 µg/mL. In addition, the “MIC50, Colistin resistant AB” value in data set [2] was less than 16 µg/mL. In the data set with ESBL (E. coli), the “MIC50, ESBL (E. coli)” value was less than 0.5 µg/mL. The MIC50 was determined as 2 µM (≈ 3 µg/mL) in the data set on E. coli, 4 µM (≈ 6 µg/mL) against A. baumannii and 4 µM (≈ 6 µg/mL) in the data set on S. aureus. In addition, the MIC90 against E. coli was 4 µM (≈ 6 µg/mL); with E. coli (E. coli + 0.8 uM Chymotrypsin), 6(4~8) uM; with E. coli (E. coli + 0.8 uM protease K), 6(4~8) uM; against A. baumannii it was 8 µM (≈ 12 µg/mL); against S. aureus, 8 µM (≈ 12 µg/mL). In addition, the “dye leakage, PC/CH liposome mimicking a red blood cell membrane” value in data set [3] is listed as “almost no dye leakage”. The “dye leakage, EYPG/EYPC (6:4, w/w) liposome mimicking gram-positive bacterial cell membrane” value in [4] was “high dye leakage”. Moreover, the “binding to LTA (ITC)” value in [5] is recorded as “binds”. For the same compound, the “resistance to the proteolytic enzyme” value in data set [6] is listed as “much improved resistance”.
